# Results: US20260091008A1, “DOUBLE TARGETED CONSTRUCTS TO AFFECT TUMOR KILL” (Cornell University, priority 2016, published 2026)
# Values joined by “and” are separate entries in the source; they are usually repeats but may differ in a detail not shown here. Equal entries are not always repeated.
# What was measured:
# HSA = HSA (Homo sapiens, UniProt P02768); assay: HSA affinity determination on immobilized-HSA microcolumns; format: binding; conditions: HSA microcolumn, phosphate buffer pH 7.4, room temperature
# Source text: HSA affinity determination. HSA was immobilized to HPLC-grade silica by the Schiff base method as described previously and were packed into 10 mm×2.1 mm i.d. microcolumns. See Chen J, Hage D S. Quantitative studies of allosteric effects by biointeraction chromatography: analysis of protein binding for low-solubility drugs. Anal Chem. 2006:78:2672-2683 and Matsuda R, Anguizola J, Hoy K S, Hage D S. Analysis of drug-protein interactions by high-performance affinity chromatography: interactions of sulfonyl urea drugs with normal and glycated human serum albumin. Methods Mol Biol. 2015; 1286:255-277, each of which is incorporated herein by reference. The protein content of these columns was approximately 60 mg HSA per gram of silica. See Zheng X, Podariu M, Bi C, Hage D S. Development of enhanced capacity affinity microcolumn by using a hybrid of protein cross-linking/modification and immobilization. J. Chromatogr A. 2015; 1400:82-90, incorporated herein by reference. Control microcolumns were prepared in the same manner but with no HSA being added during the immobilization step. The retention factor for each compound was measured on both an HSA microcolumn and a control column by injecting 5 μL samples that contained approximately 50 μM of the compound in 0.067M potassium phosphate buffer (pH 7.4). All samples were injected in triplicate at room temperature and at 1.0 mL/min, with the phosphate buffer used as the mobile phase. Similar injections were made with samples containing sodium nitrate, which was used as a void volume marker. Elution of the injected compounds was monitored by absorbance detection. The dissociation constant (Kd) for each compound with HSA estimated by using the measured retention factors, after correcting for any observed retention on the control column, along with the estimated content of active HSA in the column, as based on injections made with warfarin and L-tryptophan (i.e., probes for Sudlow sites I and II of HSA). See Chen J, Hage D S. Anal Chem. 2006:78:2672-2683 (cited above) and Joseph K S, Hage D S. The effects of glycation on the binding of human serum albumin to warfarin and L-tryptophan. J Pharm Biomed Anal. 2010; 53:811-818, incorporated herein by reference.
# PSMA on LNCaP cells = target: T1, PSMA on LNCaP cells (Homo sapiens, UniProt Q04609); assay: Multi-concentration competitive binding assay against 99mTc-MIP-1427 on LNCaP cells; conditions: non-radioactive ligands vs 1 nM 99mTc-MIP-1427, LNCaP cells, 1 h
# T1 construct: host or cells: LNCaP
# Method: Cell Culture. […] Cell culture supplies were from Invitrogen unless otherwise noted.
# In vitro determination of IC50. […] Eur J Nucl Med Mol Imaging. 2017; 44, 647-661, incorporated herein by reference. […] The cells were incubated for 1 h with 1 nM ^99mTc-MIP-1427 in serum-free RPMI-1640 medium in the presence of 0.1-10,000 nM test compounds. […] Cells were harvested from the plates and transferred to tubes for radioactive counting using a Packard Cobra II Gamma Counter. IC50 values were determined by non-linear regression using GraphPad Prism software.
# [1] = salivary glands, radioligand therapy; cited from earlier work
# LNCaP cell xenografts = assay: Tissue distribution of 131I-labeled compounds in mice bearing LNCaP xenografts; conditions: male, NCr-nu/nu, mouse, in vivo
# Method: Inoculation of mice with xenografts. All animal studies were approved by the Institutional Animal Care and Use Committee of Weill Cornell Medicine and were undertaken in accordance with the guidelines set forth by the USPHS Policy on Humane Care and Use of Laboratory Animals. Animals were housed under standard conditions in approved facilities with 12 h light/dark cycles. Food and water was provided ad libitum throughout the course of the studies. Male inbred athymic nu/nu mice were purchased from The Jackson Laboratory. For inoculation in mice, LNCaP cells were suspended at 4×10^7 cells/mL in a 1:1 mixture of PBS:Matrigel (BD Biosciences). Each mouse was injected in the left flank with 0.25 mL of the cell suspension. The mice were imaged when the tumors reached approximately 200-400 mm^3, while biodistributions were conducted when tumors were in the range 100-400 mm^3.
# Tissue Distribution Studies. A quantitative analysis of the tissue distribution of ^131I-labeled compounds was performed in separate groups of male NCr-nu/nu mice bearing LNCaP cell xenografts administered via the tail vein as a bolus injection (approximately 370 kBq (10 μCi)/mouse) in a volume of 0.05-0.1 mL of saline solution containing 2.5% v/v DMSO. The animals (n=3-5/time point) were euthanized by asphyxiation with CO2 at the indicated time points after injection. Tissues, including blood, heart, lungs, liver, spleen, pancreas, kidneys, stomach, large and small intestines (with contents), skeletal muscle, bone, and tumor, were dissected, excised, weighed wet (Sartorius analytical balance), and counted in a Wizard automated […] (Perkin Elmer). A 1% ID/g standard was counted with the tissue samples. Tissue time-radioactivity levels expressed as percent injected dose per gram of tissue (% ID/g) were determined. Blood pharmacokinetics were modeled as a dual compartment system using bi-exponential least-squares regression fit to the data. Regression method was implemented in MATLAB R2015b (MathWorks, Natick, MA).
# [2] = in vivo; cited from earlier work
# T1 sequence (Q04609 whole entry): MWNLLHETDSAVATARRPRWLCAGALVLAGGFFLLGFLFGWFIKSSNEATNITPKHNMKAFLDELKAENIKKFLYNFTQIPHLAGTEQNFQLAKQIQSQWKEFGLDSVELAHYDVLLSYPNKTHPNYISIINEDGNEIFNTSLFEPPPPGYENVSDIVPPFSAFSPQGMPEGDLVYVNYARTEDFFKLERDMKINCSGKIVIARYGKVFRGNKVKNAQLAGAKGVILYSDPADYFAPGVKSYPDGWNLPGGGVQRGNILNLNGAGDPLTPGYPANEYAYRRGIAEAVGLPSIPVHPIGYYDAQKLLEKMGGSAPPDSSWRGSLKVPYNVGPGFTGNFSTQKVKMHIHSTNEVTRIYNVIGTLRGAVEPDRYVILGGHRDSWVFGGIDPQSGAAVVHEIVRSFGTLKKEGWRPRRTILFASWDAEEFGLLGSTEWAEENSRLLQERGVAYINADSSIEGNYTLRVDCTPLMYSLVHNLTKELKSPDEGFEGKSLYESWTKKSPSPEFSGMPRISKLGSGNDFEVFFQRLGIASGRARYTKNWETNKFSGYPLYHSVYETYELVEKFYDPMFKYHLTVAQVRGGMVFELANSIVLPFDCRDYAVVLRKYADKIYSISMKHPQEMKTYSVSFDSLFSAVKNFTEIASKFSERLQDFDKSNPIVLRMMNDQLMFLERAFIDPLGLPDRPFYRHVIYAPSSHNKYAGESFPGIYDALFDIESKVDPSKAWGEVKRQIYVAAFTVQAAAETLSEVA
# Sequence of HSA (P02768 25-609): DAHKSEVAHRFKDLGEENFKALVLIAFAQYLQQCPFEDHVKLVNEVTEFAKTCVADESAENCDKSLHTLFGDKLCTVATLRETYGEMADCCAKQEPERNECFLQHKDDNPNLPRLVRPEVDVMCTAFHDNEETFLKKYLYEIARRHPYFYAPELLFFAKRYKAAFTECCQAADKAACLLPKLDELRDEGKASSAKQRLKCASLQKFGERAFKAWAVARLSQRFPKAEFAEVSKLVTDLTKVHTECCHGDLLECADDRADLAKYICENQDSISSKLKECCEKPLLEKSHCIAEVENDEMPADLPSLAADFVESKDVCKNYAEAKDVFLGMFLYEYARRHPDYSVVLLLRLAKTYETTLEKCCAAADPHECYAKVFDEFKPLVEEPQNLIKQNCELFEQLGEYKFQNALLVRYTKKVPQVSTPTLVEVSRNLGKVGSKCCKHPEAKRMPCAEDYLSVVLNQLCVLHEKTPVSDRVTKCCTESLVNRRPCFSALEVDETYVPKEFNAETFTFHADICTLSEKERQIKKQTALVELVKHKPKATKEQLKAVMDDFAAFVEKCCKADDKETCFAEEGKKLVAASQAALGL
compound,measurement,setting,value
"O=C(O)CC[C@H](NC(=O)N[C@@H](CCCCNC(=O)Nc1ccc(I)cc1)C(=O)O)C(=O)O [RPS-001, reference compound]",Kd,HSA,19200 nM
"O=C(O)CC[C@H](NC(=O)N[C@@H](CCCCNC(=O)CCCc1ccc(I)cc1)C(=O)O)C(=O)O [RPS-005, (((S)-1-Carboxy-5-(4-(4-iodophenyl)butanamido)pentyl)carbamoyl)-L-glutamic acid]",Kd,HSA,980 nM
same,IC50,PSMA on LNCaP cells,4 nM
"O=C(O)CC[C@H](NC(=O)N[C@@H](CCC(=O)N[C@@H](CCCCNC(=O)CCCc1ccc(I)cc1)C(=O)O)C(=O)O)C(=O)O [RPS-025, (3S,7S,12S)-21-(4-iodophenyl)-5,10,18-trioxo-4,6,11,17-tetraazahenicosane-1,3,7,12-tetracarboxylic acid]",Kd,HSA,< 1000 nM
same,Kd for HSA,HSA,could not be eluted from the column
same,IC50,PSMA on LNCaP cells,15 nM
"O=C(O)CC[C@H](NC(=O)N[C@@H](CCCCNC(=O)CCc1ccc(I)cc1)C(=O)O)C(=O)O [RPS-026, (((S)-1-Carboxy-5-(3-(4-iodophenyl)propanamido)pentyl)carbamoyl)-L-glutamic acid]",Kd,HSA,26600 nM
same,IC50,PSMA on LNCaP cells,40 nM
"O=C(O)CC[C@H](NC(=O)N[C@@H](CCCCNC(=O)Cc1ccc(I)cc1)C(=O)O)C(=O)O [RPS-027, (((S)-1-Carboxy-5-(2-(4-iodophenyl)acetamido)pentyl)carbamoyl)-L-glutamic acid]",Kd,HSA,11000 nM and 11200 nM
same,IC50,PSMA on LNCaP cells,15 nM
O=C(O)CCC(NC(=O)N[C@@H](CCCCNC(=O)Nc1ccc([131I])cc1)C(=O)O)C(=O)O (some centres unmarked) [^131I-RPS-001],Toxicity reported in patients,[1],dose-limiting toxicity to the salivary glands
same,Blood t1/2 for the distribution phase,LNCaP cell xenografts,2.17 h
same,Blood t1/2 for the elimination phase,LNCaP cell xenografts,20.38 h
same,Initial kidney uptake,LNCaP cell xenografts,> 100 % ID/g
same,Time post injection at which T/K ratio reaches 3,LNCaP cell xenografts,~96 h
same,Kidney uptake,LNCaP cell xenografts; 24 h,65.24±22.61 % ID/g
same,Large intestine uptake,LNCaP cell xenografts; 24 h,2.35±1.26 % ID/g
same,Spleen uptake,LNCaP cell xenografts; 24 h,2.41±1.40 % ID/g
same,Tumor uptake,LNCaP cell xenografts; 24 h,19.81±6.16 % ID/g
same,Kidney uptake,LNCaP cell xenografts; 96 h,2.12±2.47 % ID/g
same,Tumor uptake,LNCaP cell xenografts; 96 h,10.21±4.30 % ID/g
O=C(O)CCC(NC(=O)NC(CCCCNC(=O)CCCc1ccc([131I])cc1)C(=O)O)C(=O)O (centres unmarked) [^131I-RPS-005],Kd,HSA,890 nM
same,Blood activity,LNCaP cell xenografts; 24 h,21.35±3.99 % ID/g
same,Heart uptake,LNCaP cell xenografts; 24 h,4.40±0.74 % ID/g
same,Kidney uptake,LNCaP cell xenografts; 24 h,39.09±2.96 % ID/g
same,Liver uptake,LNCaP cell xenografts; 24 h,3.41±0.56 % ID/g
same,Lungs uptake,LNCaP cell xenografts; 24 h,8.87±0.74 % ID/g
same,Tumor uptake,LNCaP cell xenografts; 24 h,9.37±1.56 % ID/g
same,Blood activity,LNCaP cell xenografts; 96 h,15.57±3.98 % ID/g
same,Tumor uptake,LNCaP cell xenografts; 96 h,10.82±2.64 % ID/g
"O=C(O)CC[C@H](NC(=O)NC(CCCCNC(=O)c1ccc([211At])cc1)C(=O)O)C(=O)O (stereo partly drawn) [^211At-6, (2S)-2-(3-(1-carboxy-5-(4-^211At-astatobenzamido)pentyl)ureido)-pentanedioic acid]",Nephrotoxicity,[2],"dose-limiting, irreversible nephrotoxicity"
O=C([O-])CC[C@H](NC(=O)N[C@@H](CCCCNC(=O)[C@H](Cc1ccc2ccccc2c1)NC(=O)[C@H]1CC[C@H](CNC(=O)CN2CCN(CC(=O)[O-])CCN(CC(=O)[O-])CCN(CC(=O)[O-])CC2)CC1)C(=O)[O-])C(=O)[O-].[225Ac].[H+].[H+].[H+] [^225Ac-PSMA-617],Toxicity reported in patients,[1],severe and sustained xerostomia
(((S)-1-Carboxy-4-(2-(4-iodophenyl)acetamido)pentyl)carbamoyl)-L-glutamic acid [RPS-023],Kd,HSA,53200 nM
same,IC50,PSMA on LNCaP cells,10 nM
(((S)-1-Carboxy-4-(3-(4-iodophenyl)propanamido)pentyl)carbamoyl)-L-glutamic acid [RPS-022],Kd,HSA,22900 nM
same,IC50,PSMA on LNCaP cells,10 nM
(((S)-1-Carboxy-4-(4-(4-iodophenyl)butanamido)pentyl)carbamoyl)-L-glutamic acid [RPS-020],Kd,HSA,2100 nM
same,IC50,PSMA on LNCaP cells,8 nM
